Tests used:
[1] = tested on: sympathetic neurons exogenously expressing TrkB; conditions: U0126 added with 25 ng/ml BDNF, dose-dependent
Procedure: We transduced postnatal sympathetic neurons with an adenovirus encoding TrkB. In Campenot dishes, these neurons grow processes into compartments containing 25 ng/ml BDNF.

rat sympathetic neurons = assay: MTT survival assay of cultured sympathetic neurons; assay type: cell-based; conditions: cultured in NGF or NGF+KCl
Procedure: Neurons were plated at low density (approximately one ganglion/well) in Nunclon™ 4-well culture dishes (Gibco BRL, Burlington, Ontario, Canada), coated with either rat tail collagen or poly-D-lysine and laminin (both from Collaborative Biomedical Products, Bedford, Mass.). Culture medium was UltraCulture (BioWhittaker, Walkersville, Md.), supplemented with 3% rat serum (Harlan Bioproducts, Madison, Wis.), 2 mM glutamine, 100 U/ml penicillin, 100 μg/ml streptomycin (all from BioWhittaker), and for the first two days, 7 μM cytosine arabinoside (Sigma-Aldrich Canada Ltd., Oakville, Ontario, Canada).
NGF-dependent neurons were selected by culturing sympathetic neurons for five days in the presence of 50 ng/ml NGF. Neurons were washed three times for one hour each in neurotrophin-free media, and were then fed with media containing 10 ng/ml NGF alone, or various concentrations of NGF plus either 100 ng/ml BDNF, 10 μg/ml αBDNF, or a 1:100 dilution of antiserum containing the p75^NTR antibody, REX (Weskamp and Reichardt, Neuron 6: 649-663, 1991). Each condition was repeated in triplicate, and analysis of survival was performed 48 hours later by using nonradioactive cell proliferation (MTT) assays (Celltitre 96; Promega; Belliveau et al., J. Cell Biol. 136:375-388, 1997). Specifically, 50 μl of the MTT reagent was added to 500 μl media in each well, and incubated for two hours at 37° C. After aspiration of the MTT containing media, 100 μl of a 0.065N HCl/isopropanol mixture was added to each well to lyse the cells, and colorimetric analysis was performed using an ELISA reader. For rat sympathetic neurons, 10 ng/ml NGF represents 100% survival, therefore all other values were considered to be relative to 10 ng/ml NGF. For mouse neurons, 7.5 ng/ml NGF represents 100% survival, and was thus considered to be the 100% survival threshold for neuritogenesis experiments.

sympathetic neurons = assay: Quantitative dot-blot of MAP2 association with microtubules and microtubule stability; assay type: cell-based, rat; conditions: neurons maintained in NGF or NGF+KCl
Procedure: FIG. 22 is a schematic illustration showing immuno-dot blot analysis of MAP2 association and tubulin dynamics in SCG neurons. […]
Microtubules were isolated from cultured sympathetic neurons, and the relative amount of MAP2 present per microgram tubulin was determined using quantitative dot-blot analysis. […] Depolarization enhances MAP2 levels and CamKII phosphorylation in sympathetic neurons. We performed western blot analysis of sympathetic neurons treated with 10 ng/ml NGF, 50 mM KCl, or NGF+KCl. Lysates containing equal amounts of protein were separated by SDS-PAGE, transferred to nitrocellulose, and then probed for MAP2, phosphorylated-CamKII, phosphorylated-ERKs, or total ERK protein. KCl increases the amount of MAP2 present in sympathetic neurons, and enhances CamKII phosphorylation.
Inhibition of either CamKII or MEK is sufficient to inhibit activitydependent dendrite formation. Immunocytochemical analysis for MAP2 on sympathetic neurons cultured in the presence of NGF+KCl with or without 10 um KN62, 75 um PD98059, 100 nM H-89 or 10 uM forskolin. […] In this study, microtubule stability was determined in sympathetic neurons maintained in NGF or NGF+KCl, and treated with selective pharmacological inhibitors.

[2] = tested on: postnatal sympathetic neurons (SCG neurons); assay: Campenot chamber neurite growth assay; assay type: cell-based, rat; conditions: 50 μM U0126 with 10 ng/ml NGF
Procedure: We have devised a method for quantitatively assaying neurite growth. In this assay, the cell bodies of neurons are plated in Campenot chamber, a compartmentalized dish that has scratches or grooves in the matrix. The compartments are physically separated from each other by, for example, a Teflon® divider. The cells are placed in the central compartment. The scratches allow neurites to extend from the neuronal cell bodies and into adjacent compartments (FIG. 10A).
Neurites were induced to grow into HGF supplemented side compartments, and then visualized by staining against tubulin. Adenoviral-mediated expression of DN MEK in SCG neurons decreased neuritogenesis by 39% (FIGS. 10B, 10C).
We cultured postnatal sympathetic neurons in Campenot chambers. […] Addition of 50 μM U0126 in conjunction with 10 ng/ml NGF abrogates this growth while having no effects on cell survival (FIG. 15).

In the case of `N#CC(=C(/N)Sc1ccccc1N)/C(C#N)=C(\N)Sc1ccccc1N` [U0126], the TrkB-mediated neuronal growth [1] was “dramatically reduced”, the “survival of sympathetic neurons (MTT)” value (rat sympathetic neurons) was “None of these compounds perturbs” and the “KCl-induced increase in microtubule stability” value (sympathetic neurons) was “completely inhibit”. The “NGF-induced neuronal growth into side compartment” value [2] was “abrogates” and the cell survival [2] was “no effects”.

— patent US20020009713A1, “Methods for identifying modulators of neuronal growth” (priority 2000, published 2002)
